# Experimental data reported in PMC3692405, “Disease-associated mutations in CNGB3 promote cytotoxicity in photoreceptor-derived cells” (Molecular Vision, 2013).
# Like-named read-outs stand apart in the source and are kept apart here.
# Experiments:
# [1] = tested on: 661W cells expressing CNGA3 plus CNGB3 F525N; conditions: 24 h
# Procedure: (§1) The mouse photoreceptor 661W cell line used in this study was generously provided by Dr. Al-Ubaidi (University of Oklahoma Health Sciences Center, Oklahoma City, OK). The 661W cells were routinely maintained in Dulbecco’s modified Eagle’s medium (Gibco, Carlsbad, CA), supplemented with 10% fetal bovine serum (Gemini Bioproducts, Sacramento, CA) and 1% penicillin/streptomycin (Gibco), at 37 °C in a humidified incubator with 5% CO2; cells were subcultured every 3–5 days. The 661W cells were transfected with pOPRSVI plasmids encoding human cone CNG channel subunits using Lipofectamine™ 2000 and OptiMEM (Life Technologies, Carlsbad, CA) according to the manufacturer’s protocol for cells in suspension. A reporter plasmid—a green fluorescent protein-expressing vector (pQBI25-fC2, Wako Pure Chemical Industries, Ltd., Japan) using a constitutive CMV promoter—was transfected under the same conditions to assess transfection efficiency. […] In addition, the pOPRSVI plasmid was transfected alone as a negative control. The amounts of each vector were as follows (µg/10 cm^2 culture surface): 2 FLAG- or GFP-CNGA3 plus 2 FLAG-CNGB3 (WT, T383fsX or F525N); 4 GFP; or 4 pOPRSVI.
# (§2) For most experiments, the LDH Cytotoxicity Detection Kit (Roche Applied Science) was used according to the manufacturer’s protocol (see also [37]). Briefly, cultured 661W cells were transfected with the desired plasmid constructs as described above and then plated in 96-well tissue culture plates at a density of approximately 8×10^3 cells/well. Forty-eight hours after transfection, cells were treated with various concentrations of CPT-cGMP and/or CPT-cAMP (Sigma-Aldrich) alone or together with L-cis-diltiazem (Enzo Life Sciences, Inc., Farmingdale, NY) in Dulbecco’s modified Eagle’s medium supplemented with 1% fetal bovine serum for 24 h at 37 °C. Following treatment, half of the culture medium was transferred to another 96-well plate and the LDH released into the culture medium was measured to assess the number of damaged/dead cells. Cells in the original plate were then lysed and the total amount of cellular LDH was assessed. The percentage cytotoxicity was then calculated from the ratio of LDH concentration in the medium/cells, and was normalized to the percentage cytotoxicity in untreated cells transfected with control pOPRSVI plasmid only.
# [2] = tested on: 661W cells expressing CNGA3 plus CNGB3 T383fsX; conditions: for relative cytotoxicity (LDH release, normalized to untreated vector-only control): 24 h
# Procedure: as §1, §2
# [3] = tested on: channel-transfected 661W cells; assay: LDH-release cytotoxicity assay, channel-transfected cells; assay type: cell-based, mouse; conditions: CPT-cAMP alone, 0.1 to 10 µM; data not shown
# Procedure: The mouse photoreceptor 661W cell line used in this study was generously provided by Dr. Al-Ubaidi (University of Oklahoma Health Sciences Center, Oklahoma City, OK). The 661W cells were routinely maintained in Dulbecco’s modified Eagle’s medium (Gibco, Carlsbad, CA), supplemented with 10% fetal bovine serum (Gemini Bioproducts, Sacramento, CA) and 1% penicillin/streptomycin (Gibco), at 37 °C in a humidified incubator with 5% CO2; cells were subcultured every 3–5 days. The 661W cells were transfected with pOPRSVI plasmids encoding human cone CNG channel subunits using Lipofectamine™ 2000 and OptiMEM (Life Technologies, Carlsbad, CA) according to the manufacturer’s protocol for cells in suspension. […]
# For most experiments, the LDH Cytotoxicity Detection Kit (Roche Applied Science) was used according to the manufacturer’s protocol (see also [37]). […] Following treatment, half of the culture medium was transferred to another 96-well plate and the LDH released into the culture medium was measured to assess the number of damaged/dead cells. Cells in the original plate were then lysed and the total amount of cellular LDH was assessed. The percentage cytotoxicity was then calculated from the ratio of LDH concentration in the medium/cells, and was normalized to the percentage cytotoxicity in untreated cells transfected with control pOPRSVI plasmid only.
# [4] = biological target: T1, homomeric CNGA3-only channels (Homo sapiens, UniProt Q16281); assay: Inside-out patch-clamp recording of channels expressed in Xenopus oocytes (CNGA3 only); assay type: biochemical; conditions: +80 mV, Hill fit, mean±SEM, n=9
# T1 construct: expressed in transfected cells; host or cells: Xenopus laevis oocytes injected with cRNA transcribed from pGEMHE constructs
# T1 sequence (Q16281 1-694): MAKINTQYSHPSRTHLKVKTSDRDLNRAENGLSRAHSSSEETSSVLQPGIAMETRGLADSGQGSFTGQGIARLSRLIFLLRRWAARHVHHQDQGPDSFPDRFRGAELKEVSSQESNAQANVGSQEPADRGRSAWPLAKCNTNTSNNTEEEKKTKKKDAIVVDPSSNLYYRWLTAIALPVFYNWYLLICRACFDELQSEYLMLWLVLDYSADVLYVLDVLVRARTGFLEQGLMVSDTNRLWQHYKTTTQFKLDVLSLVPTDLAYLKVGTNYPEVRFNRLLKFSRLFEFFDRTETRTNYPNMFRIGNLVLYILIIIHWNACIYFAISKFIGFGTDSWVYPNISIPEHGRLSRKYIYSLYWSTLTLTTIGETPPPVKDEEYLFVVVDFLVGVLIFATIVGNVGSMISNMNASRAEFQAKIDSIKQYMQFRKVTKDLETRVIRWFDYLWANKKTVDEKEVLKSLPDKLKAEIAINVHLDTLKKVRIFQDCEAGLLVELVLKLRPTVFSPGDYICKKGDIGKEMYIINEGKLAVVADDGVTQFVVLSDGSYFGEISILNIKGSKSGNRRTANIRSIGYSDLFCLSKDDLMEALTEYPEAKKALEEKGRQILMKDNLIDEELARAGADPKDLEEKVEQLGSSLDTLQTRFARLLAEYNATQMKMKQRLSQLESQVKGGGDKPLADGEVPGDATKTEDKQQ
# Procedure: For heterologous expression in Xenopus laevis oocytes, identical amounts of cDNA were linearized using SphI or NheI, and capped cRNA was transcribed in vitro using the T-7 RNA polymerase mMESSAGE mMACHINE® kit (Ambion, Austin, TX). cRNA concentrations and relative amounts were determined by denaturing gel electrophoresis and KODAK 1D image analysis software (Rochester, NY), as well as by spectrophotometry. […] Oocytes were incubated in ND96 (96 mM NaCl, 2 mM KCl, 1.8 mM CaCl2, 1 mM MgCl2, and 5 mM HEPES, pH 7.6, supplemented with 10 μg/ml gentamycin).
# Two to seven days after microinjection of cRNA, patch-clamp experiments were performed using the inside-out configuration with an Axopatch 200B amplifier (Axon Instruments, Foster City, CA). Recordings were made at 20–23 °C. Data were acquired using Pulse software (HEKA Elektronik, Lambrecht, Germany). Current traces were elicited by voltage steps from a holding potential of 0 mV to +80 mV, then to −80 mV and back to 0 mV. […] We measured sensitivity to block by L-cis-diltiazem (RBI, Natick, MA) applied to the intracellular face of the patch in the presence of 0.1 μM CPT-cGMP. […] Data were analyzed using Igor (Wavemetrics, Lake Oswego, OR), SigmaPlot, and SigmaStat (Systat Software Inc., San Jose, CA). […] Statistical significance was determined using a Student t test or Mann–Whitney rank sum test, and a p value of <0.05 was considered significant.
# [5] = 10 µM CPT-cAMP combined with 0.1 µM CPT-cGMP
SMILES,"relative cytotoxicity (LDH release, normalized to untreated vector-only control) ([1]; 1 µM CPT-cAMP coapplied with 0.1 µM CPT-cGMP)","relative cytotoxicity (LDH release, normalized to untreated vector-only control) [1, 5]","relative cytotoxicity (LDH release, normalized to untreated vector-only control) [2, 5]",effect on relative cytotoxicity compared to CPT-cGMP treatment alone ([2]; various concentrations of CPT-cAMP coapplied with 0.1 µM CPT-cGMP),effect on relative cytotoxicity [3],"Hill slope h, CPT-cGMP activation [4]","EC50 ([4]; read-out: apparent CPT-cGMP affinity K1/2, CPT-cGMP (channel activation)) [nM]","relative cytotoxicity (LDH release, normalized to untreated vector-only control) ([1]; 0.1 µM CPT-cGMP alone)","relative cytotoxicity (LDH release, normalized to untreated vector-only control) ([2]; 0.1 µM CPT-cGMP)"
"Nc1ncnc2c1nc(Sc1ccc(Cl)cc1)n2[C@@H]1O[C@@H]2COP(=O)(O)O[C@H]2[C@H]1O [CPT-cAMP, CPT-adenosine 3′,5′-cyclic monophosphate]",1.31±0.06,1.67±0.08,1.30±0.05,unaltered,no significant increase in relative cytotoxicity,,,,
"Nc1nc2c(nc(Sc3ccc(Cl)cc3)n2[C@@H]2O[C@@H]3COP(=O)(O)O[C@H]3[C@H]2O)c(=O)[nH]1 [CPT-cGMP, 8-(4-chlorophenylthio) guanosine 3′,5′-cyclic monophosphate]",,,,,,2.2±0.1,114 ± 7.9,1.59±0.05,1.26±0.05
